Assays:
[1] = tested on: Hepatic HMG-CoA Reductase; assay: Hepatic HMG-CoA reductase activity assay, hamster liver microsomes; assay type: in vivo, golden Syrian hamster; details: 28 days
From the text: Male golden Syrian hamsters (126-147 gm) were obtained from Charles Rivers Laboratories and were single housed in a constant temperature environment with alternating 12-hour light and dark cycles. Hamsters were fed Teklad 7001 rodent meal chow at libitum for two weeks before the experimental studies began and switched to Teklad 7001 rodent meal chow supplemented with 0.24% cholesterol on day one of the 28-day experiment. Water was continuously available to the animals. Hamsters were assigned to groups in a manner that normalized each group by pretreatment body weights. SD-5613 was dissolved in an aqueous solution of 0.2% (w/v) Tween 80 and administered Q.D. by intragastric gavage between 9 a.m. and 10 a.m. each morning using a syringe fitted with a flexible feeding tube. Blood samples were collected after 14- and 28-day treatment periods by orbital sinus and cardiac puncture, respectively. Hamsters were anesthetized but not fasted prior to blood collections. Fecal samples were collected during a 48-hour period at the end of days 14 and 28 (i.e. days 13-14 and 27-28). Hamsters were sacrificed using carbon dioxide asphyxiation to obtain the following tissue samples: liver, kidneys, colon and cecum.
Homogenates of three gram liver tissue samples were prepared in 25 ml homogenization buffer [0.1 M potassium phosphate buffer, pH 7.2, containing 0.1 M sucrose, 50 mM KCl, 50 mM NaF, 5 mM ethylene glycol-bis(β-aminoethyl ether)-N,N,N′,N′-tetraacetic acid (EGTA), 1 mM EDTA, 3 mM dithiothreitol (DTIT), and 1 mM phenylmethylsulfonyl fluoride (PMSF)]. A microsomal fraction was prepared by centrifugation at 10,000×g for ten minutes. The supernatant was subjected to centrifugation at 105,000×g for two hours. The microsomal fraction was resuspended in a 0.1 M Na tetrapyrophosphate buffer (pH 10), with 50 mM NaF, and 1 mM EDTA, and subjected to centrifugation for one hour at 105,000×g. The microsomal fraction was resuspended in the homogenization buffer, and assayed for protein content by Coomassie Protein Plus Assay reagent.
Microsomes (200 μg) were preincubated for 15 minutes at 37° C. in a total volume of 225 μl buffer containing 0.1 M potassium phosphate (pH 7.4), 10 mM imidazole, 5 mM DTT, 10 mM EDTA, 3 mM NADP, 12 mM glucose-6-phosphate and 1 unit glucose-6-phosphate dehydrogenase (catalog number G4134, Sigma, St. Louis). The HMG-CoA reductase assay was initiated by the addition of 9 nmoles (0.5 μCi). DL-[-3^14C]-HMG-CoA (final assay volume was DL-3-[^14C]-250 μl). The mixture was incubated for 60 minutes at 37° C. after which the assay was stopped with 25 μl of 6 N HCl. [^3H]Mevalonic acid (0.1 μCi), used as an internal standard to correct for incomplete recovery, was added to the reaction mixture along with 3 mg of unlabeled mevalonic acid lactone. The mixture was then incubated for an additional 30 minutes at 37° C. The [^14C]mevalonate that was formed and converted into mevalonic acid lactone during both incubations was isolated by thin layer chromatography. Each lane was scraped into 3 ml of InstaGel XF (Packard, Meriden, Conn.) and read on a Beckman Scintillator Counter. Reagents unless noted otherwise were obtained from Sigma, St. Louis, Mo. Isotopes were obtained from NEN Life Science Products, Boston, Mass.

[2] = Toxicokinetics of LUM001 free form, 13-week oral gavage toxicity study in rats; assay type: in vivo; details: plasma; rat, after IV administration of 3 mg/kg; read-out: AUC(0-24 h)
[3] = tested on: serum bile acids; assay: Phase 1 ascending multiple oral doses of LUM001 in healthy adults: serum bile acid analysis; assay type: in vivo, human; details: 28 days
Description: This Phase 1 study was a randomized, double-blind, placebo-controlled study of ascending multiple oral doses of LUM001 in healthy, adult subjects. This study was conducted at a single center. There were 13 LUM001 dosing panels: 10, 20, 60, 100, and 20 mg every morning (qAM) (2) (i.e., the regimen was tested a second time in the study), 5 mg every evening (qPM), 0.5, 1, 2.5, 5, 2.5 (2), 5 (2), and 0.5 to 5 mg qAM dose titration. Most of the dosing panels included subjects treated with matching placebo. No subject participated in more than 1 dosing panel. Subjects were randomized into the study by dosing panel, and all subjects within a dosing panel received study medication at approximately the same time each day. Safety was reviewed for each panel before subsequent panels were initiated. A total of 167 subjects were treated for 28 days, 147 with LUM001 and 20 with placebo. […]
On Day 1 of the Treatment Period, subjects who qualified for enrollment were randomized in the order in which they were admitted to the research facility. […] The safety and tolerability of LUM001 were evaluated by physical examination, ascertainment of adverse signs and symptoms, and clinical laboratory studies. […]
SBA were analyzed as part of the routine clinical analysis of the serum samples collected at each time point.

[4] = Systemic exposure of LUM001 in patients under 18 years (study NB-00-02-014); assay type: in vivo, human; details: QD, day eight
Description: LUM001 has been administered to forty patients under the age of 18 years old. […] The drug was administered once-a-day (QD) in the morning for fourteen days. […] These doses are similar to those using to treat patients with PSC-IBD or PSC.

CCCCC1(CCCC)CS(=O)(=O)c2ccc(N(C)C)cc2[C@@H](c2ccc(OCc3ccc(C[N+]45CCN(CC4)CC5)cc3)cc2)[C@H]1O [LUM001]
Hepatic HMG-CoA Reductase ([1]; 5 mg/kg/day): 4.6 ± 0.4 pmol/mg-protein/min | Hepatic HMG-CoA Reductase, % change from vehicle group ([1]; 5 mg/kg/day): (+31) % | Hepatic HMG-CoA Reductase ([1]; 15 mg/kg/day): 16 ± 4 pmol/mg-protein/min | Hepatic HMG-CoA Reductase, % change from vehicle group ([1]; 15 mg/kg/day): (+346) % | Hepatic HMG-CoA Reductase ([1]; 50 mg/kg/day): 17 ± 4 pmol/mg-protein/min | Hepatic HMG-CoA Reductase, % change from vehicle group ([1]; 50 mg/kg/day): (+389) % | AUC(0-t) [2]: 4320 ng·h/mL | effect on serum bile acids [3]: significant reduction | systemic exposure [4]: minimally absorbed
